Data published in patent US20260008746A1, “CATIONIC LIPID COMPOUND WITH HIGH EFFICIENCY, LOW TOXICITY AND STABLE EXPRESSION, AND COMPOSITION COMPRISNG SAME” (HANGZHOU TIANLONG PHARMACEUTICAL CO., LTD, priority 2023, published 2026).

Experiments:
BALB/C mice = experiment: In vivo imaging of Fluc-mRNA expression in mice delivered by LNP formulations; conditions: for average radiation intensity, 6 h / average radiation intensity, 24 h / average radiation intensity, 48 h / average radiation intensity, 7 d: LNP containing 10 pg Fluc-mRNA, intramuscular, female BALB/C mice
How it was run: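 Female BALB/C mice (4-6 weeks, 17-19 g) received LNP carrying […] Fluc-mRNA intramuscularly. Substrate was given intraperitoneally at 6 h, 24 h, 48 h and 7 d, and average radiance was imaged by IVIS 5 min later.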

293T cells [1] = experiment: Cell survival rate determination (CCK-8); type: cell-based; conditions: for Cell survival rate (%): LNP formulation containing 1.5 μg Fluc-mRNA, 24 hours, CCK-8, absorbance at 450 nm; for cell survival rate lower than that of YK-101: cell survival rate of YK-101 minus that of named substance; for cell survival rate lower than that of YK-107: cell survival rate of YK-107 minus that of named substance; for cell survival rate lower than that of YK-108: cell survival rate of YK-108 minus that of named substance
How it was run: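 293T cells were seeded overnight at 10,000 cells/well in 96-well plates, then exposed for 24 h to LNP containing 1.5 μg Fluc-mRNA (cationic:neutral:structural:polymer-conjugated lipid, 49:10:39.5:1.5 molar) or to Lipofectamine 3000. Viability was read by CCK-8, 1 h incubation, absorbance 450 nm.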

293T cells [2] = experiment: Fluorescent detection of Fluc-mRNA (cell transfection efficiency of LNP formulations); type: cell-based; conditions: for Relative light unit (RLU): LNP formulation containing 0.3 μg Fluc-mRNA, 96-well plate, 24 hours; for Multiples (YK-101): RLU of YK-101 / RLU of named substance; for Multiples (YK-107): RLU of YK-107 / RLU of named substance; for Multiples (YK-108): RLU of YK-108 / RLU of named substance; for Ratio relative to SM-102: RLU of named substance / RLU of SM-102; for difference from SM-102 in Fluc-mRNA fluorescence (GraphPad Prism analysis): statistical comparison with SM-102
How it was run: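 293T cells seeded at 10,000 per well, cultured overnight, then given LNP carrying 0.3 μg Fluc-mRNA (cationic:neutral:structured:PEG-lipid 49:10:39.5:1.5 molar). Incubated 24 h. Luciferase signal read with kit reagent on an IVIS imaging system.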

[3] = Determination of particle size and polydispersity index (PDI) of lipid nanoparticles by dynamic light scattering; type: physicochemical; conditions: LNP formulation of named cationic lipid/DSPC/cholesterol/DMG-PEG2000 49:10:39.5:1.5; for Particle size (nm): 90° scattering angle, 25° C
Procedure: The cationic lipids listed in Table 1 were dissolved in ethanol with DSPC (AVT (Shanghai) Pharmaceutical Technology Co., Ltd.), cholesterol (AVT (Shanghai) Pharmaceutical Technology Co., Ltd.) and DMG-PEG2000 according to a molar ratio of 49:10:39.5:1.5, respectively, to prepare lipid solution in ethanol. The lipid solution in ethanol was quickly added to citrate buffer (pH=4 to 5) by ethanol injection method, and vortexed for 30 s for later use. eGFP-mRNA (from Shanghai Biohub International Trade Co., Ltd) or Fluc-mRNA (from Shanghai Biohub International Trade Co., Ltd) was diluted in citrate buffer (pH=4 to 5) to give an aqueous mRNA solution. A certain volume of liposome solution and mRNA aqueous solution were used to prepare liposomes at a weight ratio of total lipids to mRNA of 15:1. The mixtures were sonicated at 25° C. for 15 min (with an ultrasonic frequency of 40 kHz and an ultrasonic power of 800 W). The resulting liposomes were diluted to 10 times volume with PBS, and then ultrafiltered with a 300 KDa ultrafiltration tube to remove ethanol. Then the volume was fixed to a certain volume with PBS to give an LNP formulation encapsulating eGFP-mRNA or Fluc-mRNA using cationic lipid/DSPC/cholesterol/DMG-PEG2000 (49:10:39.5:1.5 in molar percentage).
The particle size and polydispersity index (PDI) were determined by dynamic light scattering using Malvern laser particle size analyzer.
10 μL of the liposome solution was weighed, diluted to 1 mL with RNase-free deionized water, and added to the sample pool. Each sample was measured in triplicate. The measurement conditions were: 90° scattering angle, and 25° C.

[4] = highest multiple, time point not stated

PDI(%) [3]	Particle size (nm) [3]	Compound	average radiation intensity of YK-101, times that of named substance (BALB/C mice; 6 h)	average radiation intensity of YK-107, times that of named substance (BALB/C mice; 6 h)	average radiation intensity of YK-108, times that of named substance (BALB/C mice; 6 h)	average radiation intensity of YK-101, times that of named substance (BALB/C mice; 24 h)	average radiation intensity of YK-107, times that of named substance (BALB/C mice; 24 h)	average radiation intensity of YK-108, times that of named substance (BALB/C mice; 24 h)	average radiation intensity of YK-101, times that of named substance (BALB/C mice; 48 h)	average radiation intensity of YK-107, times that of named substance (BALB/C mice; 48 h)	average radiation intensity, 6 h (BALB/C mice; 6 h)	average radiation intensity, 24 h (BALB/C mice; 24 h)	average radiation intensity, 48 h (BALB/C mice; 48 h)	average radiation intensity, 7 d (BALB/C mice; 7 d)	Cell survival rate (%) (293T cells [1])	cell survival rate lower than that of YK-101 (293T cells [1])	cell survival rate lower than that of YK-107 (293T cells [1])	cell survival rate lower than that of YK-108 (293T cells [1])	Relative light unit (RLU) (293T cells [2])	Ratio relative to SM-102 (293T cells [2])	also measured
12.1%	205 nm	CCCCCCCCCCOC(=O)CCCN(CCO)CCCCCC(=O)OCC(CCCCCCCC)CCCCCCCC [YK-009, reference compound]									1055200	770050	132100	10665	73.57%	16.55%	16.88%	16.29%	5075954 RLU	3.31	Multiples (YK-101) (293T cells [2]): 4.01; Multiples (YK-107) (293T cells [2]): 4.41; Multiples (YK-108) (293T cells [2]): 4.86
14.4%	140 nm	CCCCCCCCCC(=O)OCCCCN(CCO)CCCCCC(=O)OCC(CCCCCCCC)CCCCCCCC [YK-106]	2.2 times	2.3 times	2.9 times	10.0 times	12.3 times	13.3 times	5.6 times	6.9 times	683840	105776	32940	7052	59.59%	30.53%	30.86%	30.27%	1628063 RLU	1.06	average radiation intensity of YK-108, times that of named substance (BALB/C mice; 48 h): 7.0 times; average radiation intensity of YK-101, times that of named substance (BALB/C mice; 7 d): 1.7 times; average radiation intensity of YK-107, times that of named substance (BALB/C mice; 7 d): 1.9 times; average radiation intensity of YK-108, times that of named substance (BALB/C mice; 7 d): 2.0 times; Multiples (YK-101) (293T cells [2]): 12.49; Multiples (YK-107) (293T cells [2]): 13.73; Multiples (YK-108) (293T cells [2]): 15.15; difference from SM-102 in Fluc-mRNA fluorescence (GraphPad Prism analysis) (293T cells [2]): no significant difference

Second part, the compound before the results:

Compound	PDI(%) [3]	Particle size (nm) [3]	average radiation intensity of YK-101, times that of named substance (BALB/C mice; 6 h)	average radiation intensity of YK-107, times that of named substance (BALB/C mice; 6 h)	average radiation intensity of YK-108, times that of named substance (BALB/C mice; 6 h)	average radiation intensity of YK-101, times that of named substance (BALB/C mice; 24 h)	average radiation intensity of YK-107, times that of named substance (BALB/C mice; 24 h)	average radiation intensity of YK-108, times that of named substance (BALB/C mice; 24 h)	average radiation intensity of YK-101, times that of named substance (BALB/C mice; 48 h)	average radiation intensity of YK-107, times that of named substance (BALB/C mice; 48 h)	average radiation intensity, 6 h (BALB/C mice; 6 h)	average radiation intensity, 24 h (BALB/C mice; 24 h)	average radiation intensity, 48 h (BALB/C mice; 48 h)	average radiation intensity, 7 d (BALB/C mice; 7 d)	Cell survival rate (%) (293T cells [1])	cell survival rate lower than that of YK-101 (293T cells [1])	cell survival rate lower than that of YK-107 (293T cells [1])	cell survival rate lower than that of YK-108 (293T cells [1])	Relative light unit (RLU) (293T cells [2])	Ratio relative to SM-102 (293T cells [2])	also measured
CCCCCCCCCCCOC(=O)CCCCCN(CCO)CCCCCCCC(=O)OC(CCCCCCCC)CCCCCCCC [SM-102, reference compound]	17.4%	142 nm	2.2 times	2.3 times	2.9 times	9.0 times	11.1 times	11.9 times	5.8 times	7.1 times	689570	117750	31900	5834	68.17%	21.95%	22.28%	21.69%	1534210 RLU	1.00	average radiation intensity of YK-108, times that of named substance (BALB/C mice; 48 h): 7.2 times; average radiation intensity of YK-101, times that of named substance (BALB/C mice; 7 d): 2.1 times; average radiation intensity of YK-107, times that of named substance (BALB/C mice; 7 d): 2.3 times; average radiation intensity of YK-108, times that of named substance (BALB/C mice; 7 d): 2.4 times; expression amount of mRNA in mice of YK-108, times that of named substance (BALB/C mice; [4]): up to 11 times; Multiples (YK-101) (293T cells [2]): 13.25; Multiples (YK-107) (293T cells [2]): 14.58; Multiples (YK-108) (293T cells [2]): 16.07
CCCCCCCCCCOC(=O)CCCN(CCO)CCCCC(=O)OCCC(CCCCCC)CCCCCC [YK-104]	26.9%	200 nm	2.0 times	2.1 times	2.7 times	9.3 times	11.4 times	12.3 times	5.6 times	6.8 times	747000	113940	33095	7969	73.55%	16.57%	16.90%	16.31%	1693707 RLU	1.10	average radiation intensity of YK-108, times that of named substance (BALB/C mice; 48 h): 7.0 times; average radiation intensity of YK-101, times that of named substance (BALB/C mice; 7 d): 1.5 times; average radiation intensity of YK-107, times that of named substance (BALB/C mice; 7 d): 1.7 times; average radiation intensity of YK-108, times that of named substance (BALB/C mice; 7 d): 1.8 times; Multiples (YK-107) (293T cells [2]): 13.20; Multiples (YK-108) (293T cells [2]): 14.56; difference from SM-102 in Fluc-mRNA fluorescence (GraphPad Prism analysis) (293T cells [2]): no significant difference
CCCCCCCCCC(=O)OCCCCN(CCO)CCCCCC(=O)OCCC(CCCCCC)CCCCCC [YK-109]	28.2%	205 nm	2.4 times	2.6 times	3.2 times	11.2 times	13.8 times	14.8 times	10.1 times	12.2 times	625040	94720	18496	4948	69.45%	20.67%	21.00%	20.41%	717431 RLU	0.47	average radiation intensity of YK-108, times that of named substance (BALB/C mice; 48 h): 12.5 times; average radiation intensity of YK-101, times that of named substance (BALB/C mice; 7 d): 2.5 times; average radiation intensity of YK-107, times that of named substance (BALB/C mice; 7 d): 2.7 times; average radiation intensity of YK-108, times that of named substance (BALB/C mice; 7 d): 2.9 times; expression amount of mRNA in mice of YK-101, times that of named substance (BALB/C mice; [4]): up to 11 times; expression amount of mRNA in mice of YK-107, times that of named substance (BALB/C mice; [4]): ≤ 13 times; difference from SM-102 in Fluc-mRNA fluorescence (GraphPad Prism analysis) (293T cells [2]): no significant difference
